Key:
Assay in all cases: antimicrobial activity by agar dilution
Format in all cases: cell-based
Conditions in all cases: after 10, 20, 40 and 60 minutes at all dilutions 1:100 to 1:800
Candida albicans = test system: Candida albicans
Method: (§1) The antimicrobial properties of the synthesized compound 9-(5-bromo-2-hydroxyphenyl)-10-[3-(dimethylamino)propyl]-3,4,6,7,9,10-hexahydroacridine-1,8(2H,5H)-dione were studied by the method of agar dilution. Test solutions of each compound were prepared in a concentration of 1% using dimethylformamide as a solvent. Then they were diluted in a physiological solution to obtain the final experimental dilutions 1:100, 1:200, 1:400, and 1:800. The effect of these substances were compared with furacillin in a controllable study. The testing microbes used were gram positive bacteria St. Aereus, gram negative bacteria E. Coli and Ps. Aeruginosa, and Candida albicans fungi. The experiments used for this survey were meat-pentonlu agar (EPA) for cultivation of bacteria and Saburo environment for fungi. Each experiment used 1 ml of test solution on each plate 500 min. Add 2 drops of emulsified with microbes feel. All experimental samples were taken from the agar after 10, 20, 40, 60 minutes in the environment on the basis of Patrk planted. Bacteria were cultivated at a temperature of 37° C. for 1 day and the mushroom was kept in a thermostat for […] at a temperature of 28° C. Then the results were checked.

E. Coli = test system: E. Coli
Method: as §1

Ps. Aeruginosa = test system: Ps. Aeruginosa
Method: as §1

St. Aereus = test system: St. Aereus
Method: as §1

Measured: inhibition activity

CN(C)CCCN1C2=C(C(=O)CCC2)C(c2cc(Br)ccc2O)C2=C1CCCC2=O [9-(5-bromo-2-hydroxyphenyl)-10-[3-(dimethylamino)propyl]-3,4,6,7,9,10-hexahydroacridine-1,8(2H,5H)-dione]
highest inhibition activity: all assays above

— patent US11976042B1, “9-(5-bromo-2-hydroxyphenyl)-10-[3-(dimethylamino)propyl]-3,4,6,7,9,10-hexahydroacridine-1,8(2H,5H)-dione as an antimicrobial compound” (KING FAISAL UNIVERSITY, priority 2023, dated 2024)
